Positions of bridges follow the written chain, without caps; N, C: chain ends. Non-standard residues stand in square brackets, D forms with d. Chains are numbered I, II in the order given. AEEA = NCCOCCOCC(=O)O
Legend:
[1] = test system: VSV pseudotyped with spike protein from SARS-CoV-2
[2] = test system: VSV pseudotyped with spike protein from SARS-CoV-1
[3] = test system: VSV pseudotyped with spike protein from WIV-16
[4] = test system: spike protein of the SARS-CoV-2 virion; assay type: binding
[5] = target: full length SARS-CoV-2 Spike (Severe acute respiratory syndrome coronavirus 2, UniProt P0DTC2); assay type: binding; settings: 10 µM

## CC[C@H](C)[C@@H]1NC(=O)[C@H](CCC(N)=O)NC(=O)[C@H](CCC(=O)O)NC(=O)[C@H](CCCNC(=N)N)NC(=O)[C@@H]2CCCN2C(=O)[C@H](CCCNC(=N)N)NC(=O)[C@H](CCCNC(=N)N)NC(=O)[C@H](Cc2ccc(O)cc2)NC(=O)CSC[C@@H](C(=O)NCC(N)=O)NC(=O)[C@H](Cc2ccccc2)NC(=O)[C@H](C(C)C)NC(=O)[C@H](Cc2c[nH]c3ccccc23)NC(=O)[C@H](CC(C)C)NC(=O)[C@H](CO)NC(=O)CNC(=O)[C@H]([C@@H](C)CC)NC(=O)[C@H]([C@@H](C)CC)NC1=O [Compound S1b3inL1]
SARS2-S pseudotyped VSV
  IC50: 810 nM
Whole SARS-CoV-2 virus
  IC50: 5200 nM
[1]
  IC50: 1700 nM
[2]
  IC50: 2200 nM
[3]
  IC50: 7000 nM
SARS-CoV-2 pseudoviruses
  IC50: 1500 nM

## CC[C@H](C)[C@@H]1NC(=O)[C@H](C(C)C)NC(=O)[C@H](CC(C)C)NC(=O)[C@H](CCCCN)NC(=O)[C@H](CCCNC(=N)N)NC(=O)[C@@H]2CCCN2C(=O)[C@H](C(C)C)NC(=O)[C@H](CCCNC(=N)N)NC(=O)[C@H](Cc2ccc(O)cc2)NC(=O)CSC[C@@H](C(=O)NCC(N)=O)NC(=O)[C@H](Cc2ccccc2)NC(=O)[C@H](CC(N)=O)NC(=O)[C@H](Cc2c[nH]c3ccccc23)NC(=O)[C@H](C(C)C)NC(=O)[C@H](CO)NC(=O)CNC(=O)[C@H]([C@@H](C)CC)NC1=O [Compound S1b3inL4]
[4]
  enrichment in final round (% of total sequences): 1.50%
[5]
  ΔTm, melting point change: 0 °C
Whole SARS-CoV-2 virus
  IC50: 11400 nM

## CC[C@H](C)[C@@H]1NC(=O)[C@H](Cc2ccc(O)cc2)NC(=O)CSC[C@@H](C(=O)NCC(N)=O)NC(=O)[C@H](C(C)C)NC(=O)[C@H](Cc2ccc(O)cc2)NC(=O)[C@H](CCC(N)=O)NC(=O)[C@H](C(C)C)NC(=O)[C@H](Cc2c[nH]cn2)NC(=O)[C@H]([C@@H](C)O)NC(=O)[C@H](CO)NC(=O)[C@H](Cc2ccc(O)cc2)NC(=O)[C@H](CC(C)C)NC(=O)[C@H](CO)NC(=O)[C@H](CC(=O)O)NC(=O)[C@H](Cc2c[nH]cn2)NC(=O)[C@H](Cc2c[nH]c3ccccc23)NC(=O)[C@H](C(C)C)NC1=O [SARS2L1]
SARS2-S pseudotyped VSV
  IC50: 410 nM
Whole SARS-CoV-2 virus
  IC50: > 100000 nM

## CFFWYENYYTAITVT [SARS1spikeL3]
[4]
  enrichment in final round (% of total sequences): 2.90%

## I: {CH2CO}-YRRPREQIIIGSLWVFCG[AEEA][AEEA]KG-NH2 / II: {CH2CO}-YRRPREQIIIGSLWVFCG[AEEA][AEEA] (amide I:21-II:C; thioether I:N-I:17, II:N-II:17) [Dimer 2]
SARS-CoV-2 pseudoviruses
  IC50: 50 nM

## I: {CH2CO}-YRRPREQIIIGSLWVFCG[AEEA][AEEA][AEEA][AEEA]KG-NH2 / II: {CH2CO}-YRRPREQIIIGSLWVFCG[AEEA][AEEA][AEEA][AEEA] (amide I:23-II:C; thioether I:N-I:17, II:N-II:17) [Dimer 1]
SARS-CoV-2 pseudoviruses
  IC50: 30 nM

## I: {CH2CO}-YRRPREQIIIGSLWVFCG[AEEA][AEEA][AEEA][AEEA][AEEA][AEEA]KG-NH2 / II: {CH2CO}-YRRPREQIIIGSLWVFCG[AEEA][AEEA][AEEA][AEEA][AEEA][AEEA] (amide I:25-II:C; thioether I:N-I:17, II:N-II:17) [Dimer 3]
SARS-CoV-2 pseudoviruses
  IC50: 90 nM

## I: {CH2CO}-YRRPREQIIIGSLWVFCG[AEEA][AEEA][AEEA][AEEA][AEEA][AEEA][AEEA][AEEA]KG-NH2 / II: {CH2CO}-YRRPREQIIIGSLWVFCG[AEEA][AEEA][AEEA][AEEA][AEEA][AEEA][AEEA][AEEA] (amide I:27-II:C; thioether I:N-I:17, II:N-II:17) [Dimer 4]
SARS-CoV-2 pseudoviruses
  IC50: 10 nM

## IILYRTYFQPFRWEF [SARS1spikeL2]
[4]
  enrichment in final round (% of total sequences): 5.58%

## IVLHDGLRSATVLWI [SARS2R3L2]
[4]
  enrichment in final round (% of total sequences): 0.77%
[5]
  ΔTm, melting point change: 1.5 °C

## LIWYQSYYQTEVVWF [SARS1spikeL1]
[4]
  enrichment in final round (% of total sequences): 8.32%

## LVFHDNVYTVTVVHV [SARS2R3L1]
[4]
  enrichment in final round (% of total sequences): 0.71%
[5]
  ΔTm, melting point change: 1 °C

## NARILQRWFPELAHL [SARS2D1]
[4]
  enrichment in final round (% of total sequences): 11.88%
[5]
  ΔTm, melting point change: 0 °C

## SIENYLKKLGYVLLW [SARS2D4]
[4]
  enrichment in final round (% of total sequences): 5.53%
[5]
  ΔTm, melting point change: −0.5 °C

## SVVFSADGRHYYWDS [SARS2L3]
[4]
  enrichment in final round (% of total sequences): 1.25%
[5]
  ΔTm, melting point change: 0 °C

## TSQICQELDALGDWI [SARS1spikeD2]
[4]
  enrichment in final round (% of total sequences): 7.71%

## VIWHPDRWTSVVLQI [SARS2L2]
[4]
  enrichment in final round (% of total sequences): 17.02%
[5]
  ΔTm, melting point change: 2 °C

— patent publication US20260242415A1 (priority 2022, published 2026)
